Measurements from patent publication US12168033B2, “Synergistic composition for osteoarthritis” (LAILA NUTRACEUTICALS, priority 2014, dated 2024).

Tested on: Adjuvant Induced Arthritis
Test: Adjuvant Induced Arthritis in Sprague Dawley rats, Complete Freund's Adjuvant, 20 days (Example 20)
Assay type: in vivo
Source text: Sprague Dawley Rats were housed in solid bottom autoclaved polypropylene cages at three rats per cage with stainless steel top grill. Animals were provided with rodent pellet feed and mineral water ad libitum. The animals were acclimatized for a period of 3 days prior to enrollment into the experiment and they are habituated/adapted to the experimenter and to the experimental conditions for measurement of hind limb weight bearing capacity in the Incapacitance meter. A group of 35 animals were examined and 30 healthy SD rats were selected for the study and were randomly assigned to one of five different groups based on the paw volume, i.e., normal control (G1), vehicle control (G2), two groups (G3 & G4) supplemented with test substances composition-11 (200 mg 400 mg) and with reference drug prednisolone 10 mg/kg (G5). After 7 days administration of test item, reference item or vehicle, on day 8 arthritis was induced in rats of all groups except G1 by a single subcutaneous injection of 50 μL Complete Freund's Adjuvant (Sigma-Aldrich, USA), into the sub plantar region of left hind limb. Control group animals were injected with 0.1 mL normal saline (0.9% w/v sodium chloride). The vehicle, test items and reference drug were administered till completion of the study, i.e., 20 days. Paw volume was measured by a Plethysmometer (Pan Lab, LE7500) on day 0 (prior to treatment) and day 20. The difference between the final and initial paw volume was considered as edema volume. The in vivo anti-inflammatory responses of test compounds were estimated by calculating the percentage inhibition of paw edema when compared to the paw edema observed in the CMC supplemented control group. […] Percentage weight bearing capacity was measured in all the groups before induction and on 20th day of treatment using Incapacitance Meter (IITC Life Science Inc., CA).

SMILES: C[C@]12C=CC(=O)C=C1CC[C@@H]1[C@@H]2[C@@H](O)C[C@@]2(C)[C@H]1CC[C@]2(O)C(=O)CO [Prednisolone, prednisolone]
- Percent Weight Bearing on Left Hind Limb, Day-20 (10 mmp (prednisolone), Day-20, mean ± S.E.M, six rats): 49.88 ± 1.13%
- Percent Weight Bearing on Left Hind Limb, Before Induction (10 mmp (prednisolone), before induction): 49.57 ± 0.55%
- % inhibition of paw edema (prednisolone 10 mg/kg, day 20): 69.7%
